# Experimental data as given in patent publication US20260166162A1, “CARBON CHAIN SUBSTANCE FOR REGULATING TRANSMEMBRANE TRANSPORT AND FLUIDITY OF CELL MEMBRANES, AND PREPARATION AND USE THEREOF” (priority 2022, published 2026).
# Values joined by “and” are separate entries in the source; they are usually repeats but may differ in a detail not shown here. Identical values can stand only once. Like-named read-outs stand apart in the source and are kept apart here.
# Tests used:
# Hela cells = test: Cell membrane fluidity (Laurdan fluorescence recovery) in Hela cells; format: cell-based
# Neocopyovirus = format: in vivo; conditions: 1 mM; n=3
# 293T cells = test: Cellular phagocytosis of DiD-loaded lipid vesicles (nano-drugs) by 293T cells (Example II-51, Table II-29); format: cell-based; conditions: 293T cells pretreated 4 h, DiD lipid vesicles 2 h, n=3, untreated control 226.46 ± 1.26
# TNF-α = test: Skin photoaging (UVB) in BALB/c nude mice, serum TNF-α (Example II-54, Table II-32); format: in vivo, mouse; conditions: UVB-irradiated BALB/c nude mice, 40 days
# IL-1β = test: Skin photoaging (UVB) in BALB/c nude mice, serum IL-1β (Example II-54, Table II-33); format: in vivo, mouse; conditions: serum, UVB-irradiated BALB/c nude mice, 40 days
# IL-6 = test: Skin photoaging (UVB) in BALB/c nude mice, serum IL-6 (Example II-54, Table II-34); format: in vivo, mouse; conditions: serum, UVB-irradiated BALB/c nude mice, 40 days
# [1] = tested on: SARS-CoV-2 pseudovirus (B.1.526.2); format: cell-based
# [2] = tested on: HPV pseudovirus (HPV6-GFP); format: cell-based; conditions: 293FT cells pretreated 4 h, n=3
compound,measurement,setting,value
O=C(O)CCCCCCC(=O)O [octanedioic acid],Fluorescence recovery rate %,"Hela cells; 2 nM, 20 s",63.58%
same,Fluorescence recovery rate %,"Hela cells; 2 nM, 40 s",64.25%
same,Fluorescence recovery rate %,"Hela cells; 2 nM, 60 s",65.77%
same,Fluorescence recovery rate %,"Hela cells; 2 nM, 80 s",65.12%
same,Fluorescence recovery rate %,"Hela cells; 5 nM, 20 s",64.56%
same,Fluorescence recovery rate %,"Hela cells; 5 nM, 40 s",64.88%
same,Fluorescence recovery rate %,"Hela cells; 5 nM, 60 s",64.78%
same,Fluorescence recovery rate %,"Hela cells; 5 nM, 80 s",65.09%
same,Fluorescence recovery rate %,"Hela cells; 10 nM, 20 s",63.99%
same,Fluorescence recovery rate %,"Hela cells; 10 nM, 40 s",64.23%
same,Fluorescence recovery rate %,"Hela cells; 10 nM, 60 s",64.45%
same,Fluorescence recovery rate %,"Hela cells; 10 nM, 80 s",64.66%
same,Fluorescence recovery rate %,"Hela cells; 50 nM, 20 s",66.09%
same,Fluorescence recovery rate %,"Hela cells; 50 nM, 40 s",66.42%
same,Fluorescence recovery rate %,"Hela cells; 50 nM, 60 s",66.89%
same,Fluorescence recovery rate %,"Hela cells; 50 nM, 80 s",67.94%
same,Fluorescence recovery rate %,"Hela cells; 50 μM, 20 s",64.41%
same,Fluorescence recovery rate %,"Hela cells; 50 μM, 40 s",70.05%
same,Fluorescence recovery rate %,"Hela cells; 50 μM, 60 s",74.65%
same,Fluorescence recovery rate %,"Hela cells; 50 μM, 80 s",80.36%
same,Fluorescence recovery rate %,"Hela cells; 100 μM, 20 s",65.77%
same,Fluorescence recovery rate %,"Hela cells; 100 μM, 40 s",71.36%
same,Fluorescence recovery rate %,"Hela cells; 100 μM, 60 s",76.81%
same,Fluorescence recovery rate %,"Hela cells; 100 μM, 80 s",79.79%
same,Fluorescence intensity,Neocopyovirus,2.9 ± 0.22
same,Fluorescence intensity,293T cells; 2 nM,108.61 ± 5.68
same,Fluorescence intensity,293T cells; 5 nM,68.71 ± 4.36
same,Fluorescence intensity,293T cells; 10 nM,68.98 ± 8.56
same,Fluorescence intensity,293T cells; 50 nM,50.66 ± 5.66
same,Fluorescence intensity,293T cells; 100 nM,44.30 ± 6.35
same,Fluorescence intensity,293T cells; 1 uM,215.30 ± 5.36
same,Fluorescence intensity,293T cells; 10 uM,349.34 ± 9.48
same,Fluorescence intensity,293T cells; 50 uM,21.83 ± 1.85
same,Fluorescence intensity,293T cells; 100 uM,2.79 ± 0.22
Glucosamine-docosahexaenoic acid,Fluorescence intensity,Neocopyovirus,3.1 ± 0.65
CCCCCCCC(=O)O [n-octanoic acid],Fluorescence recovery rate %,"Hela cells; 2 nM, 20 s",65.57%
same,Fluorescence recovery rate %,"Hela cells; 2 nM, 40 s",66.78%
same,Fluorescence recovery rate %,"Hela cells; 2 nM, 60 s",66.54%
same,Fluorescence recovery rate %,"Hela cells; 2 nM, 80 s",67.22%
same,Fluorescence recovery rate %,"Hela cells; 5 nM, 20 s",66.75%
same,Fluorescence recovery rate %,"Hela cells; 5 nM, 40 s",67.05%
same,Fluorescence recovery rate %,"Hela cells; 5 nM, 60 s",67.59%
same,Fluorescence recovery rate %,"Hela cells; 5 nM, 80 s",66.98%
same,Fluorescence recovery rate %,"Hela cells; 10 nM, 20 s",64.02%
same,Fluorescence recovery rate %,"Hela cells; 10 nM, 40 s",65.23%
same,Fluorescence recovery rate %,"Hela cells; 10 nM, 60 s",65.45%
same,Fluorescence recovery rate %,"Hela cells; 10 nM, 80 s",66.51%
same,Fluorescence recovery rate %,"Hela cells; 50 nM, 20 s",67.32%
same,Fluorescence recovery rate %,"Hela cells; 50 nM, 40 s",67.94%
same,Fluorescence recovery rate %,"Hela cells; 50 nM, 60 s",68.02%
same,Fluorescence recovery rate %,"Hela cells; 50 nM, 80 s",68.65%
same,Fluorescence recovery rate %,"Hela cells; 50 μM, 20 s",64.31%
same,Fluorescence recovery rate %,"Hela cells; 50 μM, 40 s",69.09%
same,Fluorescence recovery rate %,"Hela cells; 50 μM, 60 s",73.41%
same,Fluorescence recovery rate %,"Hela cells; 50 μM, 80 s",78.32%
same,Fluorescence recovery rate %,"Hela cells; 100 μM, 20 s",66.15%
same,Fluorescence recovery rate %,"Hela cells; 100 μM, 40 s",71.58%
same,Fluorescence recovery rate %,"Hela cells; 100 μM, 60 s",75.11%
same,Fluorescence recovery rate %,"Hela cells; 100 μM, 80 s",79.84%
same,Fluorescence intensity,Neocopyovirus,5.8 ± 0.76
same,Fluorescence intensity,293T cells; 2 nM,157.30
same,Fluorescence intensity,293T cells; 5 nM,108.56
same,Fluorescence intensity,293T cells; 10 nM,83.70
same,Fluorescence intensity,293T cells; 50 nM,76.25
same,Fluorescence intensity,293T cells; 100 nM,106.35
same,Fluorescence intensity,293T cells; 1 uM,141.79
same,Fluorescence intensity,293T cells; 10 uM,124.85
same,Fluorescence intensity,293T cells; 50 uM,64.86
same,Fluorescence intensity,293T cells; 100 uM,36.35 ± 6.23
CCC=CCC=CCC=CCCCCCCCC(=O)OCC(N)C(=O)O (stereo not shown) [Ser-linolenic acid],TNF-α,TNF-α; 30 μM smeared,51 pg/mL
same,TNF-α,TNF-α; 50 μM smeared,49 pg/mL
same,TNF-α,TNF-α; 100 μM smeared,47 pg/mL
same,IL-1β,IL-1β; 30 μM smeared,62 pg/mL
same,IL-1β,IL-1β; 50 μM smeared,53 pg/mL
same,IL-1β,IL-1β; 100 μM smeared,58 pg/mL
same,IL-6,IL-6; 30 μM smeared,29 pg/mL
same,IL-6,IL-6; 50 μM smeared,33 pg/mL
same,IL-6,IL-6; 100 μM smeared,31 pg/mL
Adenosine-erucic acid [Adenosine-C22-1],Inhibition rate (%),[1]; 0.002 µM,50.54 ± 1.57%
same,Inhibition rate (%),[1]; 0.005 µM,60.66 ± 1.59%
same,Inhibition rate (%),[1]; 0.01 µM,58.34 ± 1.25%
same,Inhibition rate (%),[1]; 0.05 µM,57.33 ± 1.58%
same,Inhibition rate (%),[1]; 0.1 µM,64.66 ± 8.23%
same,Inhibition rate (%),[1]; 1 µM,-22.83 ± 0.93%
same,Inhibition rate (%),[1]; 10 µM,-44.26 ± 1.26%
same,Inhibition rate (%),[1]; 50 µM,81.44 ± 0.54%
same,Inhibition rate (%),[1]; 100 µM,90.08 ± 1.21%
same,Inhibition rate (%),[2]; 2 nM,80.11 ± 3.66%
same,Inhibition rate (%),[2]; 5 nM,85.69 ± 4.23%
same,Inhibition rate (%),[2]; 10 nM,90.35 ± 4.69%
same,Inhibition rate (%),[2]; 50 nM,92.37 ± 3.35%
same,Inhibition rate (%),[2]; 100 nM,94.75 ± 1.67%
same,Inhibition rate (%),[2]; 1 μM,32.83 ± 2.37%
same,Inhibition rate (%),[2]; 10 μM,54.26 ± 1.83%
same,Inhibition rate (%),[2]; 50 μM,91.84 ± 3.95%
same,Inhibition rate (%),"[2]; 100 μM, negative value = promotes infection",94.11 ± 2.69%
same,Fluorescence intensity,293T cells; 2 nM,112.01 ± 8.24 and 99.55 ± 5.66
same,Fluorescence intensity,293T cells; 5 nM,89.09 ± 4.19 and 46.06 ± 5.06
same,Fluorescence intensity,293T cells; 1 uM,278.16 ± 8.15 and 299.00 ± 23.21
same,Fluorescence intensity,293T cells; 10 uM,326.69 ± 10.13 and 171.00 ± 14.23
CCC=CCC=CCC=CCC=CCC=CCCCC(=O)OCC(N)C(=O)O (stereo not shown) [Serine-EPA],Fluorescence intensity,Neocopyovirus,4.8 ± 0.96
CCCCCC=CCC=CCCCCCCCC(=O)OCC(N)C(=O)O (stereo not shown) [Serine-LA],Inhibition rate (%),"[1]; 2 nM, n=3",60.54 ± 5.59%
same,Inhibition rate (%),"[1]; 5 nM, n=3",79.66 ± 5.97%
same,Inhibition rate (%),"[1]; 10 nM, n=3",78.34 ± 4.87%
same,Inhibition rate (%),"[1]; 50 nM, n=3",77.33 ± 4.56%
same,Inhibition rate (%),"[1]; 100 nM, n=3",73.66 ± 1.33%
same,Inhibition rate (%),"[1]; 1 μM, n=3",-102.33 ± 4.36%
same,Inhibition rate (%),"[1]; 10 μM, n=3",54.26 ± 0.53%
same,Inhibition rate (%),"[1]; 50 μM, n=3",51.36 ± 0.87%
same,Inhibition rate (%),"[1]; 100 μM, n=3",93.68 ± 0.73%
same,Fluorescence intensity,Neocopyovirus,2.8 ± 0.56
same,Fluorescence intensity,293T cells; 2 nM,89.36 ± 0.21
same,Fluorescence intensity,293T cells; 5 nM,46.06 ± 0.02
same,Fluorescence intensity,293T cells; 10 nM,49.05 ± 0.22
same,Fluorescence intensity,293T cells; 50 nM,51.34 ± 0.32
same,Fluorescence intensity,293T cells; 100 nM,59.65 ± 0.54
same,Fluorescence intensity,293T cells; 1 uM,458.20 ± 0.55
same,Fluorescence intensity,293T cells; 10 uM,103.58 ± 0.71
same,Fluorescence intensity,293T cells; 50 uM,110.15 ± 0.41
same,Fluorescence intensity,293T cells; 100 uM,14.31 ± 0.13
Ascorbic acid-eicosapentaenoic acid,Fluorescence intensity,Neocopyovirus,2.9 ± 0.68
